Test system: transplanted tumor of human glioblastoma cell A172
Details: 50 mg/kg
Procedure: Then cell concentration was adjusted to 1×10^7/ml with matrigel, then each nude mouse was inoculated subcutaneously with 0.2 ml of cells at its right armpit and recorded as the first day of inoculation. When the tumor grows to be greater than or equal to 100 mm^3, the mice were randomly divided into 11 groups with 6 mice in each group: a model group, a temozolomide group, […], […], […] Each group was continuously administered intragastrically for 30 days with a dose of 20 ml/kg. The mice were sacrificed the next day after drug withdrawal and the indicators were tested. The long diameter and short diameter of the tumor, and the body weight of each mouse were recorded every 3 days from drug administration to nude mouse sacrifice.
The body weight of the nude mice and the long diameter (a) and short diameter (b) of the transplanted tumor were measured every 3 days, and the tumor volume (v), relative tumor volume (RTV) and relative tumor proliferation rate (T/C) are calculated respectively according to the following formulas, wherein V=a×b^2/2; RTV=V/V0 (V0 is the tumor volume before administration, V is the tumor volume before sacrifice), and T/C (%)=treatment group RTV/model control group RTV×100%.
Each mouse was weighed and sacrificed. After the tumor was completely stripped off from the body of the mouse, the non-tumor tissues such as blood stains and fat were removed to weigh the tumor and calculate the tumor growth inhibition rate. The average tumor weight of each group of mice is used as an indicator of efficacy. Tumor growth inhibition rate (%)=(1−the average tumor weight of the treatment group/the average tumor weight of the model group)×100%.

SMILES: Cn1nnc2c(C(N)=O)ncn2c1=O [temozolomide, reference compound]
- Inhibition Rate (%) (A172 nude mice): 68.89%
- Relative Tumor Proliferation Rate (T/C) (A172 nude mice): 61.35%
- Relative Tumor Volume (RTV) (A172 nude mice): 4.12 ± 2.03
- Tumor Weight (A172 nude mice): 0.43 ± 0.06 g
- Tumor Volume (mm3) (d 1) (A172 nude mice, d1): 116.6 ± 10.91 mm3
- Tumor Volume (mm3) (d30) (A172 nude mice, d30): 482.11 ± 89.74 mm3
- Body Weight (g) (d1) (mouse, in vivo): 21.07 ± 0.57 g
- Body Weight (g) (d30) (mouse, in vivo): 19.83 ± 1.24 g

From patent publication US20200163984A1, “USE OF ISOVALERYL SPIRAMYCIN I, II AND/OR III IN MANUFACTURING MEDICAMENT FOR TREATING AND/OR PREVENTING TUMOR, AND MEDICAMENT” (SHENYANG FUYANG PHARMACEUTICAL TECHNOLOGY CO., LTD., priority 2017, published 2020)
